Measurements from paper PMC10218348 (International Journal of Molecular Sciences, 2023).
Like-named read-outs stand apart in the source and are kept apart here.

Legend:
[1] = target: human Cathepsin L (hCatL) (Homo sapiens, UniProt P07711); experiment: Cathepsin L inhibition, fluorescence-based assay (Cbz-Phe-Arg-AMC); format: biochemical; conditions: for inhibition at 20 µM: 20 µM inhibitor, read-out: hCatL inhibition, initial screening; for Ki: Cheng-Prusoff, substrate Cbz-Phe-Arg-AMC 5 µM, KM 6.5 µM; for Selectivity Index (SI): human cathepsin L vs rhodesain
human Cathepsin L (hCatL), sequence (P07711 114-333): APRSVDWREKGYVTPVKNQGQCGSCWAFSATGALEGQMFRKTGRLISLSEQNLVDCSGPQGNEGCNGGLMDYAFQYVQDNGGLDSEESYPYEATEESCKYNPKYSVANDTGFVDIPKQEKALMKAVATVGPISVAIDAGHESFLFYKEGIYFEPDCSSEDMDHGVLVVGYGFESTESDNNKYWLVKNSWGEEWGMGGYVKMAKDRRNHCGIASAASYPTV
Experimental: The determination of the activity of the inhibition against human Cathepsin L (hCatL) was performed in fluorescence-based assays. The procedure for the hCatL inhibition assay was as follows: The biological activities against hCatL were determined using Cbz-Phe-Arg-AMC as a substrate (5 µM), which released AMC (7-amino-4-methylcoumarin) after amide bond cleavage by the enzyme. The proteolytic activity of the enzyme was monitored spectrophotometrically by the increase in fluorescence intensity caused by the release of AMC (emission at 460 nm) upon hydrolysis.
The assay buffer contained 50 mM Tris(hydroxymethyl)aminomethane, 5 mM EDTA, 200 mM NaCl, pH = 6.5, and 0.005% Brij 35 to avoid aggregation and false-positive results. The enzyme buffer contained 2 mM DTT rather than Brij 35.
Inhibitor solutions were prepared from stocks of DMSO.
CD34 and CD24 were then tested separately by Tian continuous assays, twice in duplicate in 96-well plates, for a total volume of 200 µL. An equivalent amount of DMSO was used as negative control. In more detail, we used 0.001 µM, 0.01 µM, 0.05 µM, 0.1 µM, 0.5 µM, 1 µM, and 10 µM for CD34 and CD24. The residual enzyme activities were determined continuously over a period of 10 min at room temperature.
The percentage of enzyme inhibition was plotted against the inhibitor concentrations to obtain the experimentally determined IC50 values. The inhibitory constants (Ki) were calculated according to the Cheng–Prusoff Equation (1), with KM = 6.5 µM for Cbz-Phe-Arg-AMC.

[2] = test system: parasite (Trypanosoma); set-up: method as in PMID 35385806; conditions: read-out: EC50 antiparasitic activity; cited from earlier work
[3] = target: T1, rhodesain (Trypanosoma brucei rhodesiense, UniProt Q95PM0); experiment: Drug combination study against rhodesain (Chou-Talalay, Median Effect Plot, combination index); format: biochemical; conditions: combination at molar ratio 1:70
T1 construct: TEV cleavage site (C); GFP (C); hexahistidine-tag (6xHis) (C); made in house
T1 sequence (Q95PM0 entry or part of it): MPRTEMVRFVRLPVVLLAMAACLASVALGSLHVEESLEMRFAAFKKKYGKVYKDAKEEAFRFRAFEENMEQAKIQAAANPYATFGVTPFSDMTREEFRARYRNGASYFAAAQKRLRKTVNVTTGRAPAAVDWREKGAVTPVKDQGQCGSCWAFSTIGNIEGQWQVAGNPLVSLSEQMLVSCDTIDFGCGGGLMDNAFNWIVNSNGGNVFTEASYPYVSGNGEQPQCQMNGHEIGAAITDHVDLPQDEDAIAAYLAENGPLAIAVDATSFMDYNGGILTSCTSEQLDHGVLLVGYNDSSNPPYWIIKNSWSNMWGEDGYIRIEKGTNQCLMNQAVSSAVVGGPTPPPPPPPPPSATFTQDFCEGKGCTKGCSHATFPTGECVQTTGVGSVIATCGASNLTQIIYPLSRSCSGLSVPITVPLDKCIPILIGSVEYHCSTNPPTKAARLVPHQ
Source text: In the median effect plot, the maximum response corresponds to 1 instead of 100 in the dose-response curve. Therefore, fa + fu = 1, where fa corresponds to the “affected fraction”, i.e., the percentage of enzyme that has been inhibited, while fu is the unaffected fraction, i.e., the residual enzyme activity. The slope of the straight line of each Median Effect Plot is the “m value”.
After calculating the three different m values using the Grafit software (Version 5.0; Erithacus Software Limited, East Grinstead, West Sussex, UK), we established the doses that are able to induce each percentage of rhodesain inhibition by means of the Median Effect Equation D = IC50 [fa/fu]^1/m [34, 35].
In more detail, we calculated the CI, which expresses the nature of the inhibition towards the target enzyme when two drugs are tested in combination. […]
Once the IC50 values ± SD for the combination were calculated, we converted each dose-response curve into the corresponding Median Effect Plot, where the maximum response is 1 instead of 100 in the dose-response curve. […]
Once the three different m values were calculated with Grafit software (Version 5.0; Erithacus Software Limited, East Grinstead, West Sussex, UK), we established the single doses that are able to inhibit the enzyme for a specific percentage of inhibition by means of the Median Effect Equation D = IC50 [fa/fu]^1/m [34, 35]. […]

[4] = target: T1, rhodesain; experiment: Rhodesain inhibition, Tian continuous fluorogenic assay (Cbz-Phe-Arg-AMC); format: biochemical
Experimental: CD34 was tested against recombinant rhodesain by using Cbz-Phe-Arg-AMC as a fluorogenic substrate. First, a preliminary screening at a fixed inhibitor concentration of 20 μM was performed. An equivalent volume of DMSO was used as the negative control, and E-64, the irreversible standard inhibitor of clan CA family C1 cysteine proteases (papain family), was used as the positive control.
An equivalent amount of DMSO was used as negative control. Product release from substrate hydrolysis (Cbz-Phe-Arg-AMC, 10 µM) was determined continuously over a period of 10 min at room temperature. The assay buffer contained 50 mM sodium acetate, pH = 5.5, 5 mM EDTA, 200 mM NaCl, and 0.005% Brij 35 to avoid aggregation and false-positive results. The enzyme buffer contained 5 mM DTT rather than Brij 35. Inhibitor solutions were prepared from stocks of DMSO.
Fluorescence of the product AMC of the substrate hydrolyses was measured using an Infinite 200 PRO microplate reader (Tecan, Männedorf, Switzerland) at room temperature with a 380 nm excitation filter and a 460 nm emission filter. Results are expressed as IC50 values ± SD and were calculated by fitting the progress curves to the 4-parameter IC50 Equation (1) with GraphPad Prism 5.0.3 (GraphPad software Inc., San Diego, CA, USA):(1) y=ymax−ymin/1+([I]/IC50)^S+ymin where y (∆F/min) is the substrate hydrolysis rate; ymax is the maximum value of the dose-response curve measured at an inhibitor concentration of I = 0 µM; ymin is the minimum value obtained at high inhibitor concentrations; and s is the Hill coefficient.

[5] = target: T1, rhodesain; conditions: cited from earlier work
[6] = cited from earlier work

| SMILES | inhibition at 20 µM [1] [%] | Ki [1] [nM] | Selectivity Index (SI) [1] | m value (slope of Median Effect Plot) [3] | also measured |
| --- | --- | --- | --- | --- | --- |
| CC(C)C[C@H](NC(=O)c1cccc(F)c1)C(=O)N[C@H](C#N)CCc1ccccc1 [CD24] | > 80 | 34 ± 0.1 | 2.12 | – | EC50 [2]: 10100 ± 500 nM |
| N#C[C@H](CCc1ccccc1)NC(=O)[C@H](Cc1ccccc1)NC(=O)c1cc(F)cc(F)c1 [CD34, N-((S)-1-((S)-1-Cyano-3-phenylpropylcarbamoyl)-2-phenylethyl)-3,5-difluorobenzamide] | > 80 | 196 ± 22 | 7.26 | 1.0006 | IC50 [4]: 350 nM; Ki [4]: 27 ± 2.7 nM; Type of rhodesain inhibition [4]: reversibly inhibited; Rhodesain inhibition, preliminary screening ([4]; 20 µM inhibitor): full inhibition; inhibition at 20 µM ([4]; read-out: Rhodesain inhibition, preliminary screening): > 80% |
| CC(C)C[C@H](NC(=O)[C@H]1O[C@@H]1C(=O)O)C(=O)NCCCCN=C(N)N [E-64] | – | 30 ± 3 | – | – | Ki ([4]; Cheng-Prusoff from IC50, substrate Cbz-Phe-Arg-AMC 10 µM, KM 0.8 µM, read-out: Ki (nM) Rhodesain): 13 ± 0.2 nM |
| COc1cc(/C=C/C(=O)CC(=O)/C=C/c2ccc(O)c(OC)c2)ccc1O [curcumin] | – | – | – | 0.9455 | Type of rhodesain inhibition [5]: non-competitive |
| Nc1nc(N)nc(Nc2ccc([As]3SCC(CO)S3)cc2)n1 (stereo not drawn) [melarsoprol] | – | – | – | – | Encephalopathy in treated patients [6]: 5–10% |
